Legend:
Phosphodiesterase 4 [1] = target: T1, Phosphodiesterase 4 (Homo sapiens, UniProt P27815+Q08499+Q07343+Q08493); assay: In vitro inhibitory concentration against phosphodiesterase 4.; format: protein assay
Phosphodiesterase 4 [2] = target: T1, Phosphodiesterase 4; assay: Inhibitory concentration against phosphodiesterase 4.; format: protein assay

IC50 (Phosphodiesterase 4 [1])	Log IC50 (Phosphodiesterase 4 [2])	SMILES
75 nM	-7.12	CCc1nnc(Cc2c(Cl)cncc2Cl)c2cc(OC3CCCC3)c(OC)cc12
–	-7.25	COc1ccc2c(Cc3c(Cl)cncc3Cl)nncc2c1OCCCCCc1ccccc1
146 nM	-6.84	COc1cc2c(C)nnc(Cc3c(Cl)cncc3Cl)c2cc1OC1CCCC1
153 nM	–	COc1ccc2c(Cc3c(Cl)cncc3Cl)nncc2c1OC1CCCO1 (stereo unspecified)

Reference: ChEMBL document CHEMBL1136125, “Comparative molecular field analysis (CoMFA) of phthalazine derivatives as phosphodiesterase IV inhibitors” (Bioorg Med Chem Lett, 2003)
